# Laboratory results taken from article PMC5059758, “Structural characterization of antibiotic self-immunity tRNA synthetase in plant tumour biocontrol agent” (Nature Communications, 2016).
# Like-named read-outs stand apart in the source and are kept apart here.
# Tests used:
# LeuRSAt [1] = target: T1, LeuRSAt (Agrobacterium tumefaciens, UniProt Q8UBV2); test: ATP/PPi exchange assay (amino acid activation), LeuRSAt; format: biochemical, A. tumefaciens; settings: 25 nM Leu-AMS, 1 nM enzyme, 28 °C, pH 7.4
# Description: The formation of Leu-AMP by ATP/PPi exchange assays was performed as described earlier. Briefly, the reaction buffer contained 50 mM HEPES buffer (pH 7.4), 20 mM KCl, 10 mM MgCl2, 500 μM L-leucine, 4 mM ATP, 1 mM tetrasodium pyrophosphate (NaPPi), 10 μCi/mmol [^32P] NaPPi and 1 μM bovine serum albumin (BSA). The reaction was initiated by addition of 1–4 nM of active enzyme and incubated at 28 °C. Aliquots (5 μl each) were collected over 30 min and quenched in a 10% charcoal slurry containing 0.5% HCl and 50 μl of 200 mM sodium pyrophosphate in 1 M HCl. Liquid scintillation counting was then used to measure the amount of [^32P]-PPi incorporation into ATP that was adsorbed onto the charcoal.
# wt AgnB2 (LeuRS) [2] = target: T2, wt AgnB2 (LeuRS) (Agrobacterium radiobacter, UniProt B9JQP8); test: ATP/PPi exchange assay (amino acid activation), AgnB2; settings: 25 nM Leu-AMS, 1 nM enzyme, 28 °C, pH 7.4
# wt AgnB2 (LeuRS) [3] = target: T2, wt AgnB2 (LeuRS); test: Aminoacylation assay, wt AgnB2; settings: for Ki: 2 nM enzyme
# LeuRSAt [4] = target: T1, LeuRSAt; test: Isothermal titration calorimetry, LeuRSAt; design: species or system A. tumefaciens; settings: ITC, Leu-AMS binding to LeuRSAt
# Description: (§1) Typically, about 4–8 μM active protein solution and a 10-fold higher ligand concentration were prepared in buffer containing 50 mM HEPES (pH 7.4), 20 mM KCl 10 mM MgCl2 and 1 mM β-ME. The titrations were carried out in triplicate at 28 °C. The data was then analyzed using Origin software (version 7) and fitted to a one-site or a two-site binding model to obtain the binding affinity (Kd), stoichiometry (N) and enthalpy (ΔH) for each complex.
# wt AgnB2 (LeuRS) [5] = target: T2, wt AgnB2 (LeuRS); test: Isothermal titration calorimetry, wt AgnB2; format: binding, Agrobacterium radiobacter K84; settings: ITC; for Kd: 28 °C
# Description: as §1
# [6] = tested on: LeuRSAt (leucyl-tRNA synthetase); settings: aminoacylation, cited from earlier work
# [7] = tested on: AgnB2 Triple (T42P/A102N/Q573M); test: Isothermal titration calorimetry, AgnB2 Triple mutant; format: binding, Agrobacterium radiobacter K84; settings: ITC
# Description: as §1
# [8] = tested on: LeuRSAt Triad (P45T/N105A/M633Q); test: Isothermal titration calorimetry, LeuRSAt Triad mutant; format: binding, A. tumefaciens; settings: ITC
# Description: as §1
# [9] = target: T3, AgnB2 Triple mutant + LS domain (Agrobacterium radiobacter, UniProt B9JQP8, A102N/DEL566-572/Q573M/T42P, form not given); test: Isothermal titration calorimetry, AgnB2 Triple mutant + LS domain; format: binding, Agrobacterium radiobacter K84; settings: ITC, enzyme alone
# T3 sequence (B9JQP8 1-814 T42P/A102N/Q573M/DEL566-572): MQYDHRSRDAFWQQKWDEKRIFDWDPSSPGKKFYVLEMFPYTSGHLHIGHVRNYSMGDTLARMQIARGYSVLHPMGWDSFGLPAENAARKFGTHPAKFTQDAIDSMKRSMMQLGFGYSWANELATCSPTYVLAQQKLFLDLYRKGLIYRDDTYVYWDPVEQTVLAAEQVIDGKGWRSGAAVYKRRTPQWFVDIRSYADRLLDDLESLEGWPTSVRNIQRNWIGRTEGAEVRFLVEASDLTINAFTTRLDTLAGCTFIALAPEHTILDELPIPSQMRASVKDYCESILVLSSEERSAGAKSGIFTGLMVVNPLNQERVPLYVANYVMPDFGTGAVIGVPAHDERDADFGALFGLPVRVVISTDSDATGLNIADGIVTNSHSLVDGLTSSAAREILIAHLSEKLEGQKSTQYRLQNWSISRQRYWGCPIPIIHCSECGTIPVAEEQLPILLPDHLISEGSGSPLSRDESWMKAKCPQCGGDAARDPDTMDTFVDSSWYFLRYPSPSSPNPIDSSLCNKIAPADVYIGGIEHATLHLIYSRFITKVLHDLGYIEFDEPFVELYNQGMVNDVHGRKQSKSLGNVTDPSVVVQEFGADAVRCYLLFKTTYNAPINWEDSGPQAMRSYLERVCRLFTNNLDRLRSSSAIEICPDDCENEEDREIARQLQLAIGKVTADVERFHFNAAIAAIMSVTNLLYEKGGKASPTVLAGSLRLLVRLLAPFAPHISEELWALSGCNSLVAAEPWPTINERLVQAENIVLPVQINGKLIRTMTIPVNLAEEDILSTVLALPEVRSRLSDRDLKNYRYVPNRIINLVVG
# T3 sequence (Q8UBV2 585-631 partner): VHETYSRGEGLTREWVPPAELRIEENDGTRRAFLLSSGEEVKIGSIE
# Description: The LS domain of LeuRSAt (141 bp) was inserted into AgnB2 (replacing the region between amino acid no. 566 and 572 with the LS domain)[37] To obtain this, the forward PCR primer was designed to contain the region of AgnB2 (∼25 bp) preceding the LS domain insertion followed by the first 25 bases of the LS domain (5′–3′). Similarly, the reverse primer was designed so as to include the last 25 bp of the LS domain (3′–5′) and the gene sequence of AgnB2 after the LS domain insertion. An extension reaction was carried out to obtain mega primers, (forward and reverse) encoding the entire LS domain (of LeuRSAt) flanked by the sequence of AgnB2 on both sides using the protocol by Wang and Malcolm[42]. DpnI digestion was then carried out to remove the wt template. The resultant mega primer was gel purified using the Qiaex II gel extraction kit (Qiagen) to be used in the second step. […]
# as §1, with “The titrations were carried out in triplicate at 28 °C.” left out
# agrobacterial IleRS = settings: cited from earlier work
# [10] = tested on: LeuRSAt Triad (P45T/N105A/M633Q); test: Aminoacylation assay, LeuRSAt Triad mutant; format: biochemical, A. tumefaciens; settings: TM84 concentrations as high as 500 nM, 4 nM enzyme, 0.63 mM ATP
# [11] = tested on: AgnB2 Triple (T42P/A102N/Q573M); test: Aminoacylation assay, AgnB2 Triple mutant; format: biochemical, Agrobacterium radiobacter K84; settings: 4 nM enzyme, 0.63 mM ATP, 28 °C, pH 7.4
# AgnB2 Triple Q413R = test: Isothermal titration calorimetry, AgnB2 Triple Q413R mutant; format: binding, Agrobacterium radiobacter K84; settings: ITC
# Description: as §1
# [12] = target: T4, AgnB2 Triple + Q413R mutant (Agrobacterium radiobacter, UniProt B9JQP8, A102N/Q413R/Q573M/T42P); test: Aminoacylation assay, AgnB2 Triple + Q413R mutant; format: biochemical, Agrobacterium radiobacter K84; settings: fixed ATP concentration (0.675 mM), saturating leucine
# T4 sequence (B9JQP8 1-814 T42P/A102N/Q573M/Q413R): T3 sequence (B9JQP8 1-814 T42P/A102N/Q573M/DEL566-572)
# Description: (§2) Aminoacylation activities of AgnB2, LeuRSAt and their mutants were measured in 50 mM HEPES buffer (pH 7.4) containing 20 mM KCl, 25 mM MgCl2, 25 mM β-ME, 4 mM ATP, 500 μM [3,4,5-^3H] L-leucine (20 μCi/mmole), 5 μg/ml inorganic pyrophosphatase, 1 μM BSA, 10 μM of active in vitro transcribed tRNA^Leu and enzymes in the range of 2–8 nM. Reactions were pre-incubated with or without substrate and/or inhibitor and then carried out at 28 °C (37 °C-LeuRSHp). Aliquots of the reaction (5–10 μl) were quenched on 3 mM filter pads (Whatman, GE Healthcare) presoaked with 5% trichloroacetic acid (TCA). The pads were washed thrice with 5% TCA and 90% ethanol at 4 °C and then dried. The amount of Leu-tRNA^Leu was then quantified using scintillation counting. Each reaction was performed in triplicate and analyzed using Kaleidagraph (for Km and kcat determinations) or GraphPad Prism software (for IC50 determination).
# [13] = tested on: LeuRSAt (leucyl-tRNA synthetase); test: Aminoacylation assay, wt LeuRSAt; format: biochemical, A. tumefaciens; settings: 20 nM TM84, 4 nM enzyme, 0.63 mM ATP, 28 °C, pH 7.4
# Description: as §2, with “Aminoacylation activities of AgnB2, LeuRSAt and their mutants were measured in 50 mM HEPES buffer (pH 7.4) containing 20 mM KCl, 25 mM MgCl2, 25 mM β-ME, 4 mM ATP, 500 μM [3,4,5-^3H]” left out
# [14] = target: T5, LeuRS H. pylori (LeuRSHp) (Helicobacter pylori, UniProt P56457); test: Aminoacylation assay, LeuRSHp; format: biochemical; settings: aminoacylation of agrobacterium tRNALeu, 37 °C, 4 nM enzyme
# T5 construct: made in house
# Description: as §2
smiles,measurement,setting,value
"CC(C)CC(N)C(=O)NS(=O)(=O)OCC1OC(n2cnc3c(N)ncnc32)C(O)C1O (stereo not drawn) [Leu-AMS, reference compound]",inhibition of Leu-AMP formation,LeuRSAt [1],potently inhibits
same,inhibition of amino acid activation (Leu-AMP formation),wt AgnB2 (LeuRS) [2],potently inhibits
same,inhibition of overall aminoacylation reaction,"wt AgnB2 (LeuRS) [3]; 20 nM Leu-AMS, 2 nM wt AgnB2, 28 °C, pH 7.4",potently inhibited
same,Kd,LeuRSAt [4],1.6 nM
same,Kd,"wt AgnB2 (LeuRS) [5]; ligand binding to AgnB2 alone, pH 7.4, read-out: Kd",4.4 nM
CC(C)C[C@H](N)C(=O)O [Leucine],Km,"[6]; substrate, 28 °C, pH 7.4",38 ± 3.2 µM
same,kcat,"[6]; substrate, 28 °C, pH 7.4",0.38 ± 0.01 s⁻¹
CC(C)[C@@H](O)[C@H](O)C(=O)NP(=O)(O)OC[C@@H]1C[C@H](O)[C@H](n2cnc3c(N)ncnc32)O1 [TM84],"effect of mutations on TM84 binding, enzyme alone",[7]; AgnB2 Triple alone vs wt AgnB2,no significant effect
same,increase in binding of TM84 to the AgnB2·tRNALeu complex,[7]; AgnB2 Triple with tRNALeu vs wt AgnB2,3.5 fold
same,IC50,wt AgnB2 (LeuRS) [3],61300 nM
same,change in aminoacylation activity,"wt AgnB2 (LeuRS) [3]; 4 nM enzyme, 0.63 mM ATP, 28 °C, pH 7.4",No change
same,mode of inhibition with regards to ATP and leucine,"wt AgnB2 (LeuRS) [3]; aminoacylation, Lineweaver-Burk",weak competitive inhibitor
same,Ki,"wt AgnB2 (LeuRS) [3]; apparent TM84 Ki, varying leucine, aminoacylation, fixed ATP 1 mM, 28 °C, pH 7.4",1380 ± 280 nM
same,Ki,"wt AgnB2 (LeuRS) [3]; apparent TM84 inhibition constant (Ki), varying ATP, aminoacylation, fixed leucine, AgnB2·tRNALeu pre-incubated, 28 °C, pH 7.4",4720 ± 750 nM
same,"decrease in TM84 binding affinity compared with LeuRSAt, enzyme alone",[8]; LeuRSAt Triad alone,10 fold
same,"decrease in TM84 binding affinity compared with LeuRSAt, enzyme pre-incubated with tRNALeu",[8]; LeuRSAt Triad pre-incubated with tRNALeu,28 fold
same,increase in TM84 binding alone compared with wt AgnB2,[9],fourfold
same,inhibition of agrobacterial IleRS,agrobacterial IleRS,does not inhibit
same,effect on aminoacylation activity,[10],almost no effect
same,activity remaining,[11],13%
same,binding of TM84 to enzyme·tRNALeu complex tighter than wt AgnB2,AgnB2 Triple Q413R; AgnB2 Triple Q413R·tRNALeu complex,sixfold
same,binding of TM84 to enzyme alone tighter than wt enzyme,AgnB2 Triple Q413R; enzyme alone,1.3 fold
same,Ki,"[6]; wt LeuRSAt, read-out: Ki app",0.3 ± 0.1 nM
same,IC50,[12],2900 nM
same,activity remaining,[13],4%
same,reduction in AgnB2-binding affinity compared with LeuRSAt,"wt AgnB2 (LeuRS) [5]; binary binding, AgnB2 vs LeuRSAt (ref 23)",6.9 fold
same,"decrease in affinity, AgnB2·tRNA·TM84 compared with LeuRSAt·tRNA·TM84 complex",wt AgnB2 (LeuRS) [5]; ternary complex,~330 fold
same,Kd,"wt AgnB2 (LeuRS) [5]; Kd, ligand binding to AgnB2 alone, pH 7.4",1050 nM
same,Kd,"wt AgnB2 (LeuRS) [5]; Kd, TM84 binding to AgnB2 with pre-bound tRNA, AgnB2 with pre-bound tRNA",332 nM
same,IC50,[14],34 ± 1.14 nM
